Data as given in article PMC3005942, “Cloning, Expression, and Purification of a Nitric Oxide Synthase-Like Protein from Bacillus cereus” (Biochemistry Research International, 2009).

Tests used:
bcNOS [1] = biological target: T1, bcNOS (Bacillus cereus, UniProt Q814I7); assay: H2O2-dependent NOHA oxidation to nitrite, plate reader; format: biochemical; settings: H2O2, 25 °C, activator
T1 construct: gene BC_5444; full length, 356 residues, 43 kDa, homodimer; N-terminal His6 tag (pET28a, NdeI/EcoRI), E. coli BL21(DE3) pLysS; heme protein
T1 sequence (Q814I7 1-356): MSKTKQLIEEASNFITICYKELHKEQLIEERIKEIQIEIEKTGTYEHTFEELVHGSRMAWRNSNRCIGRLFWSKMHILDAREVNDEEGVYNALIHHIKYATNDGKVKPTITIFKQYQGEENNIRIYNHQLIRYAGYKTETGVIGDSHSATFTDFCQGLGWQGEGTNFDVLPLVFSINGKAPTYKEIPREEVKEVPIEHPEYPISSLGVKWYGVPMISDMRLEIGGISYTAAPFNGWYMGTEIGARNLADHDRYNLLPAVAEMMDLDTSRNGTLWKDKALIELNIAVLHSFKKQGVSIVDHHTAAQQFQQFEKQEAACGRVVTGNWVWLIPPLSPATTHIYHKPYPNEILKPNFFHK

bcNOS [2] = biological target: T1, bcNOS; assay: difference spectroscopy, double-reciprocal analysis; format: binding; settings: distal sixth ligand of ferric heme

| Compound | H2O2-dependent NOHA oxidation to nitrite, plate reader (bcNOS [1]) | Kd (bcNOS [2]) |
| --- | --- | --- |
| Nc1nc2c(c(=O)[nH]1)N[C@@H](CNc1ccc(C(=O)N[C@@H](CCC(=O)O)C(=O)O)cc1)CN2 [THF] | in the presence of NOHA and THF the activity doubled |  |
| c1c[nH]cn1 [imidazole] |  | 181 ± 13 µM |
